Structures can show the parent of a compound that is named as a salt.
How the values were obtained:
Settings in all cases: 72 h
Caco-2 [1] = assay: cell viability relative to DMSO; higher = less toxic
Calu-3 [2] = assay: as above
HepG2 [3] = assay: as above
U2OS [4] = assay: as above
Vero E6 [5] = assay: as above
Calu-3 [6] = assay: relative viability EC50 (midpoint between 100% and the lowest measured viability); higher = less toxic
HepG2 [7] = assay: as above
U2OS [8] = assay: as above
Vero E6 [9] = assay: as above
Caco-2 [10] = assay: drug sensitivity score (DSS) for viability; higher = more toxic; extreme values may be limits of the assay
Calu-3 [11] = assay: as above
HepG2 [12] = assay: as above
U2OS [13] = assay: as above
Vero E6 [14] = assay: as above
Caco-2 [15] = assay: relative viability EC50 (midpoint between 100% and the lowest measured viability); higher = less toxic

Row | Structure (SMILES) | cell viability (Caco-2 [1]; 1 nM) | cell viability (Caco-2 [1]; 10 nM) | cell viability (Caco-2 [1]; 100 nM) | cell viability (Caco-2 [1]; 1000 nM) | cell viability (Caco-2 [1]; 10000 nM) | cell viability (Calu-3 [2]; 1 nM) | cell viability (Calu-3 [2]; 10 nM) | cell viability (Calu-3 [2]; 100 nM) | cell viability (Calu-3 [2]; 1000 nM) | cell viability (Calu-3 [2]; 10000 nM) | cell viability (HepG2 [3]; 1 nM) | cell viability (HepG2 [3]; 10 nM) | cell viability (HepG2 [3]; 100 nM) | cell viability (HepG2 [3]; 1000 nM) | cell viability (HepG2 [3]; 10000 nM) | cell viability (U2OS [4]; 1 nM) | cell viability (U2OS [4]; 10 nM) | cell viability (U2OS [4]; 100 nM) | cell viability (U2OS [4]; 1000 nM) | cell viability (U2OS [4]; 10000 nM) | cell viability (Vero E6 [5]; 1 nM) | cell viability (Vero E6 [5]; 10 nM) | cell viability (Vero E6 [5]; 100 nM) | cell viability (Vero E6 [5]; 1000 nM) | cell viability (Vero E6 [5]; 10000 nM) | relative viability EC50 (Calu-3 [6]) | relative viability EC50 (HepG2 [7]) | relative viability EC50 (U2OS [8]) | relative viability EC50 (Vero E6 [9]) | drug sensitivity score (Caco-2 [10]) | drug sensitivity score (Calu-3 [11]) | drug sensitivity score (HepG2 [12]) | drug sensitivity score (U2OS [13]) | drug sensitivity score (Vero E6 [14]) | relative viability EC50 (Caco-2 [15])
1 | CCCCN(CC)c1nc(C)nc2c1c(C)c(C)n2-c1c(C)cc(C)cc1C [antalarmin] | 105% | 92.9% | 102% | 91.4% | 70.3% | 102% | 94.4% | 95.6% | 99% | 104% | 99% | 97.2% | 97.4% | 97.8% | 77.2% | 107% | 98.8% | 98.1% | 99% | 101% | 96% | 92.6% | 97.3% | 101% | 98.2% | > 10 µM | > 10 µM | > 10 µM | > 10 µM | 2.5 | 0 | 1.1 | 0 | 0 | 
2 | CCc1cccc(CC)c1NC(=O)c1nn(C)c2c1CCc1cnc(Nc3ccc(C(=O)NC4CCN(C)CC4)cc3OC(F)(F)F)nc1-2 [NMS-P715] |  |  |  |  |  | 91.9% | 97.7% | 98.8% | 105% | 104% | 114% | 103% | 107% | 112% | 48.2% | 95.9% | 99.7% | 98.1% | 102% | 98.7% | 104% | 88.8% | 104% | 94.7% | 84.7% | > 10 µM | 3.99 µM | > 10 µM | > 10 µM |  | 0 | 2.1 | 0 | 0.7 | 
3 | Cc1cccc(C)c1NC(=O)C[N+](C)(C)C [QX-222] | 107% | 97% | 99.1% | 100% | 112% | 102% | 93.8% | 107% | 94.9% | 106% | 106% | 103% | 99% | 95.5% | 95.8% |  |  |  |  |  | 102% | 101% | 98.7% | 105% | 99.7% | > 10 µM | > 10 µM |  | > 10 µM | 0 | 0 | 0 |  | 0 | > 10 µM
4 | CN(C)C(=O)COC(=O)Cc1ccc(OC(=O)c2ccc(NC(=N)N)cc2)cc1 [Camostat mesylate] |  |  |  |  |  | 99.8% | 97.1% | 104% | 91% | 97% | 102% | 96.2% | 97% | 100% | 103% | 104% | 107% | 97.4% | 100% | 99.4% | 95.9% | 105% | 88.8% | 102% | 100% | > 10 µM | > 10 µM | > 10 µM | > 10 µM |  | 0 | 0 | 0 | 0 | 
5 | CCCCc1nn(-c2ccccc2C(F)(F)F)c(=O)n1Cc1ccc(-c2ccccc2S(=O)(=O)NC(=O)c2sccc2C)cc1 | 98.6% | 110% | 102% | 100% | 94.1% | 107% | 99.2% | 108% | 106% | 109% | 98.8% | 115% | 111% | 108% | 102% |  |  |  |  |  | 104% | 106% | 102% | 96.8% | 104% | > 10 µM | > 10 µM |  | > 10 µM | 0 | 0 | 0 |  | 0 | > 10 µM
6 | Nc1nccc2c1ncn2C1C=C(CO)C(O)C1O (configuration not stated) [3-deazaneplanocin-A] | 102% | 104% | 99.3% | 88% | 77% | 97.4% | 97.5% | 108% | 85.9% | 89.9% | 105% | 106% | 86.7% | 62.7% | 25.7% | 105% | 97.4% | 91.8% | 69.3% | 57.8% | 98.8% | 100% | 89.1% | 56.6% | 36.2% | > 10 µM | 0.832 µM |  | 0.47 µM | 2 | 1 | 8.8 | 6.3 | 9.4 | > 10 µM
7 | CC(=O)Nc1nc2c(Oc3cc(-c4ccc(C(F)(F)F)cc4)ncn3)cccc2s1 [AMG-517] | 102% | 96.5% | 103% | 97.2% | 94.4% | 104% | 86.1% | 100% | 92.4% | 92.5% | 112% | 98.3% | 95.4% | 102% | 91.8% |  |  |  |  |  | 101% | 102% | 101% | 102% | 99.4% | > 10 µM | > 10 µM |  | > 10 µM | 0 | 0 | 0 |  | 0 | > 10 µM
8 | CC1=C(CC(=O)O)c2cc(F)ccc2/C1=C\c1ccc(S(C)(=O)=O)cc1 [exisulind] | 96.4% | 104% | 91.6% | 84.6% | 94.8% | 95.6% | 102% | 103% | 97.6% | 112% | 106% | 95.3% | 95.4% | 96.7% | 74.8% | 103% | 94.7% | 100% | 97.5% | 100% | 104% | 96.2% | 87.8% | 110% | 94.8% | > 10 µM |  | > 10 µM | > 10 µM | 2.2 | 0 | 1.5 | 0 | 0 | > 10 µM
